Measured values as given in US6350907B1, “Matrix metalloprotease inhibitors” (Pfizer Inc, priority 1998, dated 2002).
One block for each compound: values may come before it.

Key:
[1] = tested on: endothelial cell invasion of basement membrane; conditions: thereby inhibiting angiogenesis; cited from earlier work
MMP-12 = molecular target: T1, MMP-12 (Homo sapiens, UniProt P39900); experiment: Inhibition of MMP-12 (Human Macrophage Elastase), cleavage of fluorogenic peptide; type: biochemical; conditions: x = 12; read-out: MMP-12 inhibitor IC50
T1 construct: Catalytic domain MMP-12 (200 μg/ml) was used
Protocol: (§1) The ability of compounds to inhibit the cleavage of fluorogenic peptides by MMPs 1, 2, 3, 9 12, 13 and 14 is described below.
Inhibition of MMP-12 (Human Macrophage Elastase)
Catalytic domain MMP-12 (200 μg/ml) was used. MMP-12 was diluted in Tris-HCl assay buffer (50 mM Tris, 200 mM NaCl, 5 mM CaCl2, 20 μM ZnSO4, 0.02% Brij 35) pH 7.4 to 240 ng/ml. The final concentration of enzyme used in the assay was 60 ng/ml.
The fluorogenic substrate used in this assay was DNP-Pro-Cha-Gly-Cys(Me)-His-Ala-Lys(NMA)-NH2. The final substrate concentration used in the assay was 10 μM.
(§2) (iii) Determination of Enzyme Inhibition
Test compounds were dissolved in dimethyl sulphoxide and diluted with assay buffer so that no more than 1% dimethyl sulphoxide was present. Test compound and enzyme were added to each well of a 96 well plate and allowed to equilibrate for 15 minutes at room temperature in an orbital shaker prior to the addition of substrate. Plates were then incubated for 2 hours at room temperature prior to the determination of fluorescence (substrate cleavage) using a fluorimeter at an excitation wavelength of 360 nm and emission wavelength of 460 nm.

MMP-2 = molecular target: T2, MMP-2 (Homo sapiens, UniProt P08253); experiment: Inhibition of MMP-2, cleavage of fluorogenic peptide; type: biochemical; conditions: x = 2; read-out: MMP-2 inhibitor IC50
T2 construct: Catalytic domain MMP-2, MMP-3 and MMP-9 were prepared at Pfizer Central Research; made in house
Protocol: as §1
(§3) The assays for MMPs 2, 3, 9, and 14 are based upon the original protocol described by Knight et al. (Fed.Euro.Biochem.Soc., 296 (3), 263-266; 1992) with the slight modifications given below.
(§4) Catalytic domain MMP-2, MMP-3 and MMP-9 were prepared at Pfizer Central Research. […] MMP-3 was activated by the addition of 2 mM APMA, followed by incubation for 3 hours at 37° C. The enzymes were then diluted in Tris-HCl assay buffer (100 mM Tris, 100 mM NaCl, 10 mM CaCl2 and 0.16% Brij 35, pH 7.5), to a concentration of 10 nM. The final concentration of enzyme used in the assays was 1 nM.
(§5) The fluorogenic substrate used in this screen was Mca-Arg-Pro-Lys-Pro-Tyr-Ala-Nva-Trp-Met-Lys(Dnp)-NH2 (Bachem Ltd, Essex, UK) as originally described by Nagase et al (J.Biol.Chem., 269(33), 20952-20957, 1994). […] The final substrate concentration used in the assay was 5 μM. […]
(§6) Test compounds were dissolved in dimethyl sulphoxide and diluted with test buffer solution (as above) so that no more than 1% dimethyl sulphoxide was present. […] Plates were then incubated for 1 hour at 37° C. prior to determination of fluorescence using a fluorimeter (Fluostar; BMG LabTechnologies, Aylesbury, UK) at an excitation wavelength of 328 nm and emission wavelength of 393 nm.

MMP-3 = molecular target: T3, MMP-3 (Homo sapiens, UniProt P08254); experiment: Inhibition of MMP-3, cleavage of fluorogenic peptide; type: biochemical
T3 construct: Catalytic domain MMP-2, MMP-3 and MMP-9 were prepared at Pfizer Central Research; made in house
Protocol: as §1, §4
The final substrate concentration used in the assay was 5 μM.
as §2
Test compounds were dissolved in dimethyl sulphoxide and diluted with test buffer solution (as above) so that no more than 1% dimethyl sulphoxide was present. Test compound and enzyme were added to each well of a 96 well plate and allowed to equilibrate for 15 minutes at 37° C. in an orbital shaker prior to the addition of substrate.

MMP-13 = molecular target: T4, MMP-13 (Homo sapiens, UniProt P45452); experiment: Inhibition of MMP-13, cleavage of fluorogenic peptide; type: biochemical; conditions: x = 13; read-out: MMP-13 inhibitor IC50
T4 construct: purchased PanVera Corporation (Madison, Wis.)
Protocol: as §1
Human recombinant MMP-13 was prepared by PanVera Corporation (Madison, Wis.) and characterized at Pfizer (Groton, Conn.). A 1.9 mg/ml stock was activated with 2 mM APMA for 2 hours at 37° C. MMP-13 was then diluted in assay buffer (50 mM Tris, 200 mM NaCl, 5 mM CaCl2, 20 μM ZnCl2 and 0.02% Brij 35) at pH 7.5 to a concentration of 5.3 nM. The final concentration of enzyme used in the assay was 1.3 nM.
The fluorogenic substrate used in this screen was Dnp-Pro-Cha-Gly-Cys(Me)-His-Ala-Lys(NMA)-NH2. The final substrate concentration used in the assay was 10 μM.
as §2
Test compounds were dissolved in dimethyl sulphoxide and diluted with assay buffer so that no more than 1% dimethyl sulphoxide was present. Test compound and enzyme were added to each well of a 96 well plate. The addition of substrate to each well initiated the reaction. Fluorescence intensity was determined on a 96 well plate fluorometer (Cytofluor II; PerSeptive Biosystems, Inc, Framingham, Mass.) at an excitation wavelength of 360 nm and emission wavelength of 460 nm.

MMP-9 = molecular target: T5, MMP-9 (Homo sapiens, UniProt P14780); experiment: Inhibition of MMP-9, cleavage of fluorogenic peptide; type: biochemical; conditions: x = 9; read-out: MMP-9 inhibitor IC50
T5 construct: Catalytic domain MMP-2, MMP-3 and MMP-9 were prepared at Pfizer Central Research; made in house
Protocol: as §1, §3, §4, §5, §6

MMP-14 = molecular target: T6, MMP-14 (Homo sapiens, UniProt P50281); experiment: Inhibition of MMP-14, cleavage of fluorogenic peptide; type: biochemical; conditions: x = 14; read-out: MMP-14 inhibitor IC50
T6 construct: Catalytic domain MMP-14 was purchased from Prof Tschesche; purchased Prof Tschesche, Department of Biochemistry, Faculty of Chemistry, University of Bielefeld, Germany
Protocol: as §1, §3
Test compounds were dissolved in dimethyl sulphoxide and diluted with test buffer solution (as above) so that no more than 1% dimethyl sulphoxide was present. Test compound and enzyme were added to each well of a 96 well plate and allowed to equilibrate for 15 minutes at 37° C. in an orbital shaker prior to the addition of substrate. Plates were then incubated for 1 hour at 37° C. prior to determination of fluorescence using a fluorimeter (Fluostar; BMG LabTechnologies, Aylesbury, UK) at an excitation wavelength of 328 nm and emission wavelength of 393 nm.
Catalytic domain MMP-14 was purchased from Prof Tschesche, Department of Biochemistry, Faculty of Chemistry, University of Bielefeld, Germany. A 10 μM enzyme stock solution was activated for 20 minutes at 25° C. following the addition of 5 μg/ml of trypsin (Sigma, Dorset, UK). […]

keratinocyte migration = conditions: in vitro; cited from earlier work

T3 sequence (P08254 100-272 limits assumed): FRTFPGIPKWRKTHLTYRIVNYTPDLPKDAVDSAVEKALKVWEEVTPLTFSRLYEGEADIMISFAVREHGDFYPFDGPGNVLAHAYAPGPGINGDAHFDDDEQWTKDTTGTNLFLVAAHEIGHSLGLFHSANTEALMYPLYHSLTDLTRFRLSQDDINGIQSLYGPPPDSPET
T1 sequence (P39900 106-263 limits assumed): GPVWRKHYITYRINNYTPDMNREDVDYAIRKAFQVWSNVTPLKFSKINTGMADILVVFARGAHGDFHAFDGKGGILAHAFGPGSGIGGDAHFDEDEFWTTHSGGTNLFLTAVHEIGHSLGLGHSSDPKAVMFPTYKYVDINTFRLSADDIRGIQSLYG
T2 sequence (P08253 110-446 limits assumed): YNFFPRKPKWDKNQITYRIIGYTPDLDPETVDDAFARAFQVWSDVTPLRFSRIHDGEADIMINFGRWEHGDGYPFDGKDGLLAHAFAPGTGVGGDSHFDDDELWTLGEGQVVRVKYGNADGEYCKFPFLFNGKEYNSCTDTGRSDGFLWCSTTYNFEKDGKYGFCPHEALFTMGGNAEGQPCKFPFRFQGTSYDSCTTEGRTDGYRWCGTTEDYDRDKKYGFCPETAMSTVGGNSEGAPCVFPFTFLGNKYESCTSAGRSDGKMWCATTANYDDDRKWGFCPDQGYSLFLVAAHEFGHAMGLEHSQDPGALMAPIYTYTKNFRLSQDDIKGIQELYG
T5 sequence (P14780 107-444 limits assumed): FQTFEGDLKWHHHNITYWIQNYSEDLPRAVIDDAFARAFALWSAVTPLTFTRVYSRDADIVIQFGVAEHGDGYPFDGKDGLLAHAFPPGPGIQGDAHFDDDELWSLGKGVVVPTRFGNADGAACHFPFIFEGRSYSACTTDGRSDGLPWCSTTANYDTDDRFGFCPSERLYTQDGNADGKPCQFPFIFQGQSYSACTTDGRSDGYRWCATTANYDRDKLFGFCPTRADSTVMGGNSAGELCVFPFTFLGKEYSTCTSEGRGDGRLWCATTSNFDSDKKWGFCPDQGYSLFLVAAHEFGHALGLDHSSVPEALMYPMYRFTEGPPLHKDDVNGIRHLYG

SMILES: CNC(=O)[C@H](Cc1ccccc1)NC(=O)[C@H](CC(C)C)[C@H](CSc1cccs1)C(=O)NO [BB94, (2S,3R)-5-methyl-3-{[(1S)-1-(methylcarbamoyl)-2-phenylethyl]carbamoyl}-2-[(2-thienylthio)methyl]hexanohydroxamic acid]
- Inhibition of endothelial cell invasion of basement membrane [1]: inhibits endothelial cell invasion of basement membrane

- IC50 (MMP-12): 85 nM
- IC50 (MMP-2): 10800 nM
- 3/2sel: Selectivity for MMP-3 over MMP-2 (MMP-3): 107
- IC50 (MMP-3): 101 nM
SMILES: Cc1cc(CCC[C@H](CC(=O)O)C(=O)N[C@H](C(=O)N[C@H](C)c2ccccc2)C(C)(C)C)ccc1-c1ccccc1 [Example 1, (3R)-3-({[(1S)-2,2-dimethyl-1-({[(1R)-1-phenylethyl]amino}carbonyl)propyl]amino}carbonyl)-6-[(3-methyl-4-phenyl)phenyl]hexanoic acid]

- IC50 (MMP-13): 130 nM
- IC50 (MMP-9): 1910 nM
- IC50 (MMP-14): 5650 nM
SMILES: C[C@@H](NC(=O)[C@@H](NC(=O)[C@H](CCCc1ccc(-c2ccccc2)c(Cl)c1)CC(=O)NO)C(C)(C)C)c1ccccc1 [Example 2, (2R)-2-{3-[3-Chloro-(4-phenyl)phenyl]propyl}-N1-[(1S)-2,2-dimethyl-1-({[(1R)-1-phenylethyl]amino}carbonyl)propyl]-(N4-hydroxy)butanediamide.]

SMILES: CNC(=O)[C@H](Cc1ccc(OC)cc1)NC(=O)[C@@H](CC(=O)NO)CC(C)C [SC44463]
- Inhibition of keratinocyte migration on a collagen type I matrix (keratinocyte migration): completely inhibited
